Measured values as given in patent publication US20230310542A1, “EPIGENETIC MODIFIERS TO TREAT RETINAL DEGENERATIONS” (priority 2022, published 2023).

How the values were obtained:
[1] = test system: rd10 mice; experiment: Rod photoreceptor preservation in rd10 mice (photoreceptor rows in ONL, immunofluorescence); assay type: in vivo, mouse
Procedure: (§1) All inhibitors were diluted in 0.9% bacteriostatic sodium chloride (saline).
(§2) Retinas were fixed in 4% paraformaldehyde overnight at 4° C., washed in PBS, incubated in 5% sucrose/PBS for 30 min and then cryopreserved in 20% sucrose/PBS overnight at 4° C. Retinas were embedded in 2:1 mix of 20% sucrose and OCT (Sakura Finetek Torrance, CA) and stored at −80° C. Blocks with tissue samples were sectioned to 7-10 μm on a Cryostat Microtome HM550 (Thermo Fisher Scientific) and stored at −20° C. Antigen retrieval was performed by incubating the slides in 10 mM sodium citrate pH 6 for 30 min at 80° C. Double labeling immunohistochemistry was performed using fluorescent Alexa Fluor-conjugated secondary antibodies diluted 1:800 (Invitrogen, Carlsbad, California). Primary antibodies were diluted as follow: anti-H3K4me2 1:600, anti-H3K9me2 1:600, anti-RHO 1:50, anti-OPN1SW 1:400, anti-GFAP 1:1000, anti-IBA1 1:450 (AifI gene). […] The acquisition parameters were maintained constant for each set of experiments. Fluorescence intensity was assessed using ImageJ software (Bethesda, MD).

[2] = test system: RP; conditions: previous studies, cited from earlier work; for protective effect on RP: non-selective HDAC inhibitors
[3] = test system: RGC; conditions: previous study; cited from earlier work
[4] = test system: rd1 mice; conditions: previous studies; cited from earlier work
[5] = test system: rd10 mice retina; experiment: RT-PCR retinal gene expression, rd10 mice; assay type: in vivo, mouse
Procedure: (§3) Whole retinas were isolated from animals by removing the sclera and most of the retinal pigmented epithelium (RPE) layer under PBS. The right eye retinas from each animal were taken for RNA extraction, cDNA preparation and RT-PCR. Immediately after isolation, tissue was flash frozen in liquid nitrogen and stored at −80° C. Left eye retinas from each animal were subjected to fixation, cryopreservation, sectioning, and immunofluorescence staining. RNA extraction and purification followed the manufacturer's protocol from RNeasy Mini Kit and RNA shredder (Qiagen). […] Primers purchased from Integrated DNA Technologies (IDT). For quantitative real-time PCR we used 2× iQ-SYBR Green PCR supermix from Bio-Rad. Samples in triplicate were run on an iQ5 Multicolor Real Time PCR Detection System (Bio-Rad). The relative expression level for each gene was calculated by the 2-ΔΔCt method and normalized to GAPDH.

[6] = test system: WT mice retina; experiment: RT-PCR retinal gene expression, WT mice; assay type: in vivo, mouse
Procedure: as §3

[7] = test system: rod nuclei; conditions: WT + TCP, PN24
Procedure: as §2
The number of heterochromatin foci in rod nuclei was calculated to estimate the level of rod photoreceptor maturation in retinas of animals treated with LSD1 inhibitors (FIG. 10B).

[8] = test system: H3K4me2, H3K9me2; experiment: Anti-H3K4me2 and anti-H3K9me2 Western blot of WT retina; assay type: in vivo, mouse; conditions: WT mice treated PN9 till PN24
Procedure: Both retinas from one animal were flash frozen together in liquid nitrogen and stored at −80° C. Samples for SDS-PAGE were prepared by resuspended retinas in 50 μl PBS. Laemmli sample buffer was added, samples were boiled for 10 min, resolved on Criterion TGX Precast Gel AnyKD (Bio-Rad), transferred to nitrocellulose membrane, and immunoblotted with antibodies anti-H3K9me2 or anti-H3K4me2 diluted 1:5000; anti-ACTB diluted 1:10000; anti-PDE6B (1:500). Secondary goat anti-rabbit/mouse HRP (Jackson Immuno-Research Laboratory, West Grove, PA) was diluted 1:5000. An ECL western blot detection system (Thermo Fisher Scientific) was used to visualize the bound of the primary antibody.

[9] = test system: rd10; conditions: TCP PN9 till PN24
Procedure: Retinas were fixed in 4% paraformaldehyde overnight at 4° C., washed in PBS, incubated in 5% sucrose/PBS for 30 min and then cryopreserved in 20% sucrose/PBS overnight at 4° C. Retinas were embedded in 2:1 mix of 20% sucrose and OCT (Sakura Finetek Torrance, CA) and stored at −80° C. Blocks with tissue samples were sectioned to 7-10 μm on a Cryostat Microtome HM550 (Thermo Fisher Scientific) and stored at −20° C. TUNEL assay was carried out using the In situ Cell death detection kit, Fluorescein from Roche (Germany) according to manufacturer's instruction.

[10] = test system: GFAP, IBA1; experiment: Immunofluorescence labeling of GFAP and IBA1 in retina sections; assay type: in vivo, mouse; conditions: rd10, treated PN9 till PN24; levels remained above WT
Procedure: Fluorescence intensity was assessed using ImageJ software (Bethesda, MD).

[11] = test system: WT mice; conditions: TCP PN9 till PN24
Procedure: as §1, §2

For `C/C=C1\NC(=O)[C@H]2CSSCC/C=C/[C@H](CC(=O)N[C@H](C(C)C)C(=O)N2)OC(=O)[C@H](C(C)C)NC1=O` [romidepsin], the “rows of photoreceptor remaining in the ONL at PN24” value ([1]; romidepsin 0.2 mg/kg i.p. daily PN9 till PN24, saline control 2-3 rows) was 8 rows.

In the case of `CC(/C=C/C(=O)NO)=C\[C@@H](C)C(=O)c1ccc(N(C)C)cc1` [TSA], the “protective effect on RP” value [2] is listed as “some protective effect”.

For `Nc1cc(F)ccc1NC(=O)/C=C/c1cnn(C/C=C/c2ccccc2)c1` [RGFP966], the RGC death [3] is given as “protected against RGC death”.

In the case of `CCCC(=O)[O-].[Na+]` [sodium butyrate], the “protective effect on RP” value [2] is given as “some protective effect”.

In the case of `Nc1nccc2c1ncn2[C@@H]1C=C(CO)[C@@H](O)[C@H]1O` [DZNep, 3-deazaneplanocin A], the “retinal degeneration / photoreceptor loss in rd1 mouse” value [4] is listed as “delays in retinal degeneration”.

For `N[C@@H]1C[C@H]1c1ccccc1` (relative stereo) [TCP, trans-2-Phenylcyclopropylamine], the “rows of photoreceptors remaining in the ONL at PN24” value ([1]; TCP 10 mg/kg i.p. daily PN9 till PN24) was 7 rows, the “expression of rod photoreceptor genes relative to GAPDH” value ([5]; treated PN9 till PN24, assayed PN24, vs saline) was “increased expression of almost all rod genes” and the “expression of cone genes Thrb or Gnat2” value ([5]; treated PN9 till PN24 vs saline) was “slightly up-regulated”. For the same compound, the “expression of rod photoreceptor genes” value ([6]; WT mice treated PN9 till PN24) was “no changes”, the “expression of transcription factors of retina development and maturation” value ([6]; WT retinas, treated PN9 till PN24) was “slightly increased expression” and the “rod nuclei with 3 foci” value ([7]; WT saline 2%) was 7%. The “rod nuclei with two foci” value ([7]; WT saline 43%) was 51%, the “rod nuclei with one focus” value ([7]; WT saline 55%) was 42% and the “global levels of H3K4me2” value [8] was “did not change significantly”. The “global levels of H3K9me2” value [8] was “No changes”, the “dying cells by TUNEL staining vs control” value [9] was “no significant difference” and the “IBA1 labeling (microglia)” value [10] was “decreased”. For the same compound, the ONL thickness [11] was “significantly increased” and the “number of rows of rods” value [11] was “did not change”.

For `CCCC(CCC)C(=O)O` [VPA], the “protective effect on RP” value [2] is given as “some protective effect” and the “outcome as therapeutic agent for retinal degeneration” value [2] is given as “mixed results”.
